These results are taken from patent US20240124454A1, “TRICYCLIC COMPOUND AND USE THEREOF” (NANJING ZAIMING PHARMACEUTICAL CO., LTD., priority 2020, published 2024).

The subject of one data set is HCT116 MTAP^−/− cells. As to the kind of experiment: Determination of intracellular SAM level by LC-MS/MS. The data set is classed as cell-based. The following applies: Homo sapiens, HCT-116, 6 h, read-out: SAM production inhibitory activity IC50. The method, then: Test Example 2. Determination of Intracellular SAM Level
The brief introduction of the test principle: After the test MAT2A inhibitor was incubated with cancer cells for a period of time, the cells were lysed with a stop reagent to quench the activity of the MAT2A enzyme. The catalytic product SAM of MAT2A in the cell lysate was quantitatively determined by LC-MS/MS, and thus the activity of MAT2A in the cell was reflected.
Reference: The experiment referred to the method disclosed in patent WO2018045071.
Material and cell: HCT116 MTAP^−/− cells were purchased from KYinno; fetal bovine serum, McCoy's 5a culture medium, and penicillin-streptomycin were purchased from Gibco Company (U.S.), and 96-well plates were purchased from Corning Company (U.S.).
Cell culture: HCT116 MTAP^−/− cells were cultured with a McCoy's 5a medium containing 10% fetal bovine serum+1% penicillin-streptomycin at 37° C. with 5% CO2. Cells at logarithmic growth phase were available for the experiment.
LC-MS/MS detection: The effect of the compound on the SAM production level in HCT116 MTAP^−/− cell strains was detected by LC-MS/MS. The cells were adjusted to a concentration of 50000 cells per well, seeded on a 96-well plate, and incubated overnight at 37° C. with 5% CO2. In the experimental group, the test compound was dissolved in DMSO, diluted sequentially with DMSO and a culture medium, and transferred to a cell plate at a final concentration of 10 μM, 3-fold dilution. The cells were continuously cultured at 37° C. with 5% CO2 for 6 h. The supernatant was pipetted off. After the cells were washed once with PBS, glacial acetic acid was added to lyse the cells. After the lysate was processed, the SAM concentration was determined by LC-MS/MS analysis.
A negative control group and a positive control group were respectively used as Bottom and Top. The negative control group was added with 10 μM positive compound (compound 072 of Example 51 of patent WO2021139775A1) in the same volume, and other operations were consistent with those of the experimental group. The positive control group was not added with the test compound, only added with DMSO in the same volume, and other operations were consistent with those of the experimental group.
The % Compound inhibition was calculated and fitted to give the IC50 of the compound.
% Compound inhibition=1−100%×(Signal−Bottom)/(Top−Bottom)
Signal referred to the signal value of the experimental group, Bottom referred to the average signal value of the negative control group, and Top referred to the average signal value of the positive control group.

Data set [1] in a line: Pharmacokinetics in Balb/c Nude mice. The following applies: female, mouse, plasma; for bioavailability: Balb/c Nude, vs IV 1 mg/kg; for AUC(0-t): Balb/c Nude mice, read-out: AUC0-24. The format is in vivo. The method, then:
Test Example 9. Determination of Pharmacokinetics of Compounds of Present Application
The pharmacokinetics of the compounds of the present application were determined in mice using the following method.
I. Materials: • Balb/c Nude mice, purchased from Beijing Vital River Laboratory Animal Technology Co., Ltd. • NMP (N-methyl-2-pyrrolidone), Solutol® HS 15 (polyoxyethylenated 12-hydroxystearic acid), and Vitamin E TPGS (D-a-tocopherol-polyethylene glycol 1000 succinate), purchased from Sigma. • Acetonitrile, purchased from Merck (USA).
II. Vehicle preparation: • 10% aqueous VE TPGS solution: 1 g of VE TPGS was dissolved in purified water, and the volume was brought to 10 mL. • 5% NMP+10% Solutol® HS 15+85% water: 0.5 mL of NMP was measured using a pipette, 1 g of Solutol® HS 15 was weighed, and the volume was brought to 10 mL with water.
6 female Balb/c Nude mice (20-30 g, 4-6 weeks) were randomized into 2 groups of 3. Group 1 was administered with 1 mpk (1 mg/kg) test compound by injection at the tail vein (IV), and the vehicle was 5% NMP+10% Solutol® HS 15+85% water. Group 2 was administered with 1 or 3 mpk test compound by oral administration (PO) (see the table below for specific doses), and the vehicle was 5% NMP+10% Solutol® HS 15+85% water or 10% Vitamin E TPGS aqueous solution. Before the experiment, all animals were given free access to food and water. Blood samples of the mice in each group were collected intravenously pre-dose and at 0.083 h (only the intravenous injection group), 0.25 h, 0.5 h, 1 h, 2 h, 4 h, 6 h, 8 h, and 24 h post-dose. The whole blood samples were collected in K2EDTA vacutainers, and the plasma samples were prepared by 5 min of centrifugation (4000 rpm, 4° C.).
10 μL of mouse plasma was added to 150 μL acetonitrile solvent (containing an internal standard) to precipitate the protein. The mixture was vortexed for 0.5 min and centrifuged (14000 rpm) for 5 min. The supernatant was diluted 2-fold with water containing 0.1% (v/v) FA and quantitatively detected on an LC-MS/MS system (AB Sciex Triple Quad 6500+). When the concentration of the sample was measured, quality control samples were also analyzed and a Balb/c Nude mouse plasma standard curve was plotted. For 10× diluted samples, 2 μL of the sample was added to 18 μL of blank plasma. The mixture was vortexed for 0.5 min. Then 300 μL of acetonitrile solvent (containing an internal standard) was added to precipitate the protein. The other steps were the same as those in undiluted samples.

Setting [2] is: PO 1 mg/kg, vehicle 5% NMP + 10% Solutol HS 15 + 85% water.
[3] abbreviates: PO 3 mg/kg, vehicle 10% VE TPGS aqueous solution.

Structures are written as SMILES. Read-outs that look alike come from different tables or passages of the source.

For orientation: IC50 means the midpoint of a concentration-inhibition curve. As for `Cc1ncccc1-n1c(=O)c2ncn(C)c2c2ccc(C(F)(F)F)nc21` (atropisomer, axis not shown) [Compound 20, 1-methyl-5-(2-methylpyridin-3-yl)-7-(trifluoromethyl)-1,5-dihydro-4H-imidazo[4,5-c][1,8]naphthyridin-4-one], the half-inhibitory concentration (IC50) in the data set on HCT116 MTAP^−/− cells amounted to 3 nM.

Broadly, the bioavailability is dose-corrected exposure relative to a reference, in per cent. For the compound `Cn1cnc2c(=O)n(-c3cccc(F)c3Cl)c3nc(C(F)(F)F)ccc3c21` (atropisomer, axis not shown) [Compound 25, 5-(2-chloro-3-fluorophenyl)-1-methyl-7-(trifluoromethyl)-1,5-dihydro-4H-imidazo[4,5-c][1,8]naphthyridin-4-one], in data set [1] (setting [2]), the bioavailability is ~100% and the AUC(0-t) came to 5840 ng·h/mL. In addition, the 50% inhibitory concentration (IC50) with HCT116 MTAP^−/− cells amounted to 4.4 nM.

In the case of `Cn1cnc2c(=O)n(-c3cccc(F)c3Cl)c3nc(C(F)(F)F)ccc3c21` (single isomer, unassigned) [Compound 25-P2, 5-(2-chloro-3-fluorophenyl)-1-methyl-7-(trifluoromethyl)-1,5-dihydro-4H-imidazo[4,5-c][1,8]naphthyridin-4-one], in data set [1] (setting [3]), the bioavailability is ~100% and the AUC(0-t) turned out to be 30300 ng·h/mL. For the same compound, the IC50 with HCT116 MTAP^−/− cells came out at 2.8 nM.

For the compound `Cn1cnc2c(=O)n(-c3cccnc3C(F)(F)F)c3nc(C(F)(F)F)ccc3c21` (single isomer, unassigned) [Compound 41-P2, 1-methyl-7-(trifluoromethyl)-5-(2-(trifluoromethyl)pyridin-3-yl)-1,5-dihydro-4H-imidazo[4,5-c][1,8]naphthyridin-4-one], in data set [1] (setting [2]), the bioavailability was ~100% and the AUC(0-t) worked out at 10500 ng·h/mL. For the same compound, in the data set with HCT116 MTAP^−/− cells, the half-inhibitory concentration (IC50) was 4.6 nM.

Turning to `Cn1cnc2c(=O)n(-c3cccnc3C3CC3)c3nc(C(F)(F)F)ccc3c21` (single isomer, unassigned) [Compound 42-P2, 5-(2-cyclopropylpyridin-3-yl)-1-methyl-7-(trifluoromethyl)-1,5-dihydro-4H-imidazo[4,5-c][1,8]naphthyridin-4-one], in data set [1] (setting [2]), the bioavailability is ~100% and the AUC(0-t) was 10500 ng·h/mL.

`Cn1cnc2c(=O)n(-c3cccnc3C3CC3)c3cc(C(F)(F)F)ccc3c21` (single isomer, unassigned) [Compound 48-P2, 5-(2-cyclopropylpyridin-3-yl)-1-methyl-7-(trifluoromethyl)-1,5-dihydro-4H-imidazo[4,5-c]quinolin-4-one]: in data set [1] (setting [2]), the bioavailability was ~100% and the AUC(0-t) is 24400 ng·h/mL.

For the compound `Cn1cnc2c(=O)n(-c3cccnc3C3CC3)c3cc(Cl)ccc3c21` (single isomer, unassigned) [Compound 49-P2, 7-chloro-5-(2-cyclopropylpyridin-3-yl)-1-methyl-1,5-dihydro-4H-imidazo[4,5-c]quinolin-4-one], in data set [1] (setting [2]), the bioavailability worked out at 89.6% and the AUC(0-t) amounted to 11300 ng·h/mL. The half-maximal inhibitory concentration (IC50) in the data set with HCT116 MTAP^−/− cells came to 1.9 nM.
